Laboratory results taken from publication PMC11374673, “Discovery of isoquinoline sulfonamides as allosteric gyrase inhibitors with activity against fluoroquinolone-resistant bacteria” (Nature Chemistry, 2024).

Tested on: E. coli W3110
Assay: H-89 derivatives rescreen, 50 µM
Assay type: cell-based
Conditions: Escherichia coli, H-89 derivative rescreen, highest 50 µM
Experimental: From glycerol stocks, E. coli W3110 was cultured on blood agar plates (PB5039A, Thermo Scientific) by overnight (18 ± 2 h) aerobic incubation at 37 °C. A single colony was transferred to tryptic soy broth (TSB, 02-200-500, Scharlab). The cultures were grown to exponential phase (OD600 of 0.5) at 37 °C. The bacterial suspensions were diluted 200-fold in cation-adjusted Mueller–Hinton broth (CAMHB) and 99 µl was added to a library of test compounds (1 µl 10 mM DMSO stock, per well in technical duplicates) in polypropylene 96-well microtitre plates to reach a volume of 100 µl and a final concentration of 100 µM for each test compound and a maximum of 1% DMSO. […] Screening hits were selected from the wells where no visible bacterial growth was observed, as compared with the inoculum controls containing 1% DMSO. The follow-up screen of H-89 derivatives was performed under similar conditions with a final concentration of 50 µM.

MIC | SMILES
> 50 µM | O=S(=O)(NCCNC/C=C/c1ccc(-c2cccnc2)cc1)c1cccc2cnccc12 [Compound 35]
> 50 µM | O=C(NCCNC/C=C/c1ccc(-c2cccnc2)cc1)c1cccc2cnccc12 [Compound 37]

The remaining lines, values behind:

SMILES | MIC
O=S(=O)(NCCNCCCc1ccc(-c2cnc3[nH]ccc3c2)cc1)c1ccc(Cl)cc1 [Compound 17] | > 50 µM
O=S(=O)(NCCNCc1ccc2cc(-c3cccnc3)ccc2c1)c1cccc2cnccc12 [Compound 5] | > 50 µM
CNC(=O)c1ccc(-c2ccc(CCC(=O)NCCNS(=O)(=O)c3cccc4cnccc34)cc2)cn1 [Compound 42] | > 50 µM
